Test results taken from US20250325534A1, “MICROBIOCIDAL TETRAHYDROISOQUINOLINE DERIVATIVES” (SYNGENTA CROP PROTECTION AG, priority 2021, published 2025).

Key:
[1] = system: Blumeria graminis f. sp. tritici; assay: Blumeria graminis f. sp. tritici / wheat / leaf disc preventative (powdery mildew); assay type: in vivo; details: foliar, inoculated 1 day after application
Method: Example B7: Blumeria graminis f. Sp. Tritici (Erysiphe graminis f. Sp. Tritici)/Wheat/Leaf Disc Preventative (Powdery Mildew on Wheat) Wheat leaf segments cv. Kanzler are placed on agar in a multiwell plate (24-well format) and sprayed with the formulated test compound diluted in water. The leaf disks are inoculated by shaking powdery mildew infected plants above the test plates 1 day after application. The inoculated leaf disks are incubated at 20° C. and 60% relative humidity under a light regime of 24 h darkness followed by 12 h light/12 h darkness in a climate chamber and the activity of a compound is assessed as percent disease control compared to untreated when an appropriate level of disease damage appears on untreated check leaf segments (6-8 days after application).

Phaeosphaeria nodorum = Phaeosphaeria nodorum (Septoria nodorum) / wheat / leaf disc preventative (glume blotch); assay type: in vivo; details: Parastagonospora nodorum, foliar, inoculated 2 days after application
Method: Example B9: Phaeosphaeria nodorum (Septoria nodorum)/Wheat/Leaf Disc Preventative (Glume Blotch) Wheat leaf segments cv. Kanzler are placed on agar in a multiwell plate (24-well format) and sprayed with the formulated test compound diluted in water. The leaf disks are inoculated with a spore suspension of the fungus 2 days after application. The inoculated test leaf disks are incubated at 20° C. and 75% relative humidity under a light regime of 12 h light/12 h darkness in a climate cabinet and the activity of a compound is assessed as percent disease control compared to untreated when an appropriate level of disease damage appears in untreated check leaf disks (5-7 days after application).

Botryotinia fuckeliana = Botryotinia fuckeliana (Botrytis cinerea) / liquid culture (gray mould); assay type: cell-based; details: 72 h, growth inhibition photometrically 3-4 days after application, read-out: control of Botryotinia fuckeliana
Method: Example B2: Botryotinia Fuckeliana (Botrytis cinerea)/Liquid Culture (Gray Mould) Conidia of the fungus from cryogenic storage are directly mixed into a nutrient broth (Vogels broth). After placing a DMSO solution of test compound into a microtiter plate (96-well format), the nutrient broth containing the fungal spores is added. The test plates are incubated at 24° C. and the inhibition of growth is determined photometrically 3-4 days after application.

Alternaria solani = Alternaria solani / tomato / leaf disc (early blight); assay type: in vivo; details: foliar, inoculated 2 days after application, vs untreated control
Monographella nivalis = Monographella nivalis (Microdochium nivale) / liquid culture (foot rot cereals); assay type: cell-based; details: 96 h, photometrically 4-5 days after application, read-out: control of Monographella nivalis
Procedure, shortened: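 Test compound, applied as a DMSO solution, was challenged with fungal spores suspended in potato dextrose broth; after 4-5 days at 24° C, photometric readout gave inhibition of growth.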

[2] = system: Mycosphaerella graminicola; assay: Mycosphaerella graminicola (Septoria tritici) / liquid culture (Septoria blotch); assay type: cell-based; details: Zymoseptoria tritici, 96 h, photometrically 4-5 days after application, read-out: control of Mycosphaerella graminicola
Procedure, shortened: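 Growth inhibition measured by photometry 4-5 days post application, at 24° C incubation. Test compound supplied as DMSO solution; fungal conidia from cryostorage suspended directly in potato dextrose broth as inoculum.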

Mycosphaerella arachidis = Mycosphaerella arachidis (Cercospora arachidicola) / liquid culture (early leaf spot); assay type: cell-based; details: 96 h, photometrically 4-5 days after application, read-out: control of Mycosphaerella arachidis
Procedure, shortened: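 Photometric growth inhibition, read 4-5 days post-application at 24 °C, of Cercospora arachidicola spores suspended in potato dextrose broth and exposed to test compound delivered from DMSO solution.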

Glomerella lagenarium = Glomerella lagenarium (Colletotrichum lagenarium) / liquid culture (anthracnose); assay type: cell-based; details: Colletotrichum orbiculare, 72 h, photometrically 3-4 days after application, read-out: control of Glomerella lagenarium
Procedure, shortened: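 Conidia in potato dextrose broth added to test compound delivered as DMSO solution in microtiter plates; incubation at 24° C. Growth inhibition read photometrically 3-4 days after application.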

Pyrenophora teres = Pyrenophora teres / barley / leaf disc preventative (net blotch); assay type: in vivo; details: foliar, inoculated 2 days after application
Method: Example B16: Pyrenophora teres/Barley/Leaf Disc Preventative (Net Blotch) Barley leaf segments cv. Hasso are placed on agar in a multiwell plate (24-well format) and sprayed with the formulated test compound diluted in water. The leaf segments are inoculated with a spore suspension of the fungus 2 days after application. The inoculated leaf segments are incubated at 20° C. and 65% relative humidity under a light regime of 12 h light/12 h darkness in a climate cabinet and the activity of a compound is assessed as disease control compared to untreated when an appropriate level of disease damage appears in untreated check leaf segments (5-7 days after application).

CC1c2ccccc2C(C)(c2cnn(C)c2F)CN1C(=O)c1cc(-c2ccc(F)cc2F)on1 (stereo not shown) [Compound P-11, [5-(2,4-difluorophenyl)isoxazol-3-yl]-[4-(5-fluoro-1-methyl-pyrazol-4-yl)-1,4-dimethyl-1,3-dihydroisoquinolin-2-yl]methanone]
≥ 80%: pest or weed control at 200 ppm [1] | pest or weed control at 200 ppm (Phaeosphaeria nodorum) | inhibition of growth at 20 ppm (Botryotinia fuckeliana) | pest or weed control at 200 ppm (Alternaria solani) | inhibition of growth at 20 ppm (Monographella nivalis) | inhibition of growth at 20 ppm [2] | inhibition of growth at 20 ppm (Mycosphaerella arachidis) | inhibition of growth at 20 ppm (Glomerella lagenarium)

Cc1nn(C)c(C)c1C1CN(C(=O)c2cc(-c3ccc(F)cc3F)on2)Cc2ccccc21 (stereo not shown) [Compound P-126, [5-(2,4-difluorophenyl)isoxazol-3-yl]-[4-(1,3,5-trimethylpyrazol-4-yl)-3,4-dihydro-1H-isoquinolin-2-yl]methanone]
≥ 80%: pest or weed control at 200 ppm (Pyrenophora teres) | pest or weed control at 200 ppm (Alternaria solani) | inhibition of growth at 20 ppm (Monographella nivalis) | inhibition of growth at 20 ppm [2] | inhibition of growth at 20 ppm (Mycosphaerella arachidis) | inhibition of growth at 20 ppm (Glomerella lagenarium)

Cc1c(C2CN(C(=O)c3cc(-c4ccccc4F)no3)Cc3ccccc32)cnn1C (stereo not shown) [Compound P-110, [4-(1,5-dimethylpyrazol-4-yl)-3,4-dihydro-1H-isoquinolin-2-yl]-[3-(2-fluorophenyl)isoxazol-5-yl]methanone]
≥ 80%: pest or weed control at 200 ppm (Phaeosphaeria nodorum) | inhibition of growth at 20 ppm (Botryotinia fuckeliana) | pest or weed control at 200 ppm (Pyrenophora teres) | pest or weed control at 200 ppm (Alternaria solani) | inhibition of growth at 20 ppm (Monographella nivalis) | inhibition of growth at 20 ppm [2] | inhibition of growth at 20 ppm (Mycosphaerella arachidis) | inhibition of growth at 20 ppm (Glomerella lagenarium)

Cc1ccc2c(c1)C(C)(c1cnn(C)c1)CN(C(=O)c1cc(-c3ccc(F)cc3F)on1)C2C (stereo not shown) [Compound P-216, [5-(2,4-difluorophenyl)isoxazol-3-yl]-[1,4,6-trimethyl-4-(1-methylpyrazol-4-yl)-1,3-dihydroisoquinolin-2-yl]methanone]
≥ 80%: inhibition of growth at 20 ppm (Botryotinia fuckeliana) | pest or weed control at 200 ppm (Pyrenophora teres) | inhibition of growth at 20 ppm (Monographella nivalis) | inhibition of growth at 20 ppm [2] | inhibition of growth at 20 ppm (Glomerella lagenarium)

COc1ccc2c(c1)C(C)N(C(=O)c1cc(-c3ccc(F)cc3F)on1)CC2(C)c1cnn(C)c1 (stereo not shown) [Compound P-18, [5-(2,4-difluorophenyl)isoxazol-3-yl]-[7-methoxy-1,4-dimethyl-4-(1-methylpyrazol-4-yl)-1,3-dihydroisoquinolin-2-yl]methanone]
≥ 80%: pest or weed control at 200 ppm (Pyrenophora teres) | pest or weed control at 200 ppm (Alternaria solani) | inhibition of growth at 20 ppm (Monographella nivalis) | inhibition of growth at 20 ppm [2] | inhibition of growth at 20 ppm (Mycosphaerella arachidis) | inhibition of growth at 20 ppm (Glomerella lagenarium)

Cn1cc(C2CN(C(=O)c3cc(-c4c(F)cc(F)cc4F)on3)Cc3ccccc32)cn1 (stereo not shown) [Compound P-136, [4-(1-methylpyrazol-4-yl)-3,4-dihydro-1H-isoquinolin-2-yl]-[5-(2,4,6-trifluorophenyl)isoxazol-3-yl]methanone]
≥ 80%: pest or weed control at 200 ppm (Phaeosphaeria nodorum) | pest or weed control at 200 ppm (Pyrenophora teres) | pest or weed control at 200 ppm (Alternaria solani) | inhibition of growth at 20 ppm (Monographella nivalis) | inhibition of growth at 20 ppm [2]

C[C@H]1c2ccccc2[C@@](C)(c2cnn(C)c2)CN1C(=O)c1cc(-c2ccccc2)on1 [Compound P-2, [(1S,4S)-1,4-dimethyl-4-(1-methylpyrazol-4-yl)-1,3-dihydroisoquinolin-2-yl]-(5-phenylisoxazol-3-yl)methanone]
≥ 80%: pest or weed control at 200 ppm (Phaeosphaeria nodorum) | pest or weed control at 200 ppm (Pyrenophora teres) | pest or weed control at 200 ppm (Alternaria solani) | inhibition of growth at 20 ppm (Monographella nivalis) | inhibition of growth at 20 ppm [2] | inhibition of growth at 20 ppm (Mycosphaerella arachidis)

Cc1c(C2CN(C(=O)c3noc(-c4ccc(F)cc4F)n3)Cc3ccccc32)cnn1C (stereo not shown) [Compound P-228, [5-(2,4-difluorophenyl)-1,2,4-oxadiazol-3-yl]-[4-(1,5-dimethylpyrazol-4-yl)-3,4-dihydro-1H-isoquinolin-2-yl]methanone]
≥ 80%: pest or weed control at 200 ppm (Pyrenophora teres) | pest or weed control at 200 ppm (Alternaria solani) | inhibition of growth at 20 ppm (Monographella nivalis) | inhibition of growth at 20 ppm [2] | inhibition of growth at 20 ppm (Mycosphaerella arachidis) | inhibition of growth at 20 ppm (Glomerella lagenarium)

Cn1ncc(C2CN(C(=O)c3cc(-c4ccc(F)cc4F)on3)Cc3ccccc32)c1Br (stereo not shown) [Compound P-45, [4-(5-bromo-1-methyl-pyrazol-4-yl)-3,4-dihydro-1H-isoquinolin-2-yl]-[5-(2,4-difluorophenyl)isoxazol-3-yl]methanone]
≥ 80%: pest or weed control at 200 ppm (Phaeosphaeria nodorum) | inhibition of growth at 20 ppm (Botryotinia fuckeliana) | pest or weed control at 200 ppm (Pyrenophora teres) | pest or weed control at 200 ppm (Alternaria solani) | inhibition of growth at 20 ppm (Monographella nivalis) | inhibition of growth at 20 ppm [2] | inhibition of growth at 20 ppm (Mycosphaerella arachidis) | inhibition of growth at 20 ppm (Glomerella lagenarium)

Cc1c(C2CN(C(=O)c3cc(-c4ccc(F)cc4)on3)Cc3ccccc32)cnn1C (stereo not shown) [Compound P-120, [4-(1,5-dimethylpyrazol-4-yl)-3,4-dihydro-1H-isoquinolin-2-yl]-[5-(4-fluorophenyl)isoxazol-3-yl]methanone]
≥ 80%: pest or weed control at 200 ppm (Phaeosphaeria nodorum) | inhibition of growth at 20 ppm (Botryotinia fuckeliana) | pest or weed control at 200 ppm (Pyrenophora teres) | pest or weed control at 200 ppm (Alternaria solani) | inhibition of growth at 20 ppm (Monographella nivalis) | inhibition of growth at 20 ppm [2] | inhibition of growth at 20 ppm (Mycosphaerella arachidis) | inhibition of growth at 20 ppm (Glomerella lagenarium)

Cc1nn(C)c(C)c1C1CN(C(=O)c2cc(-c3ccccc3F)on2)Cc2ccccc21 (stereo not shown) [Compound P-117, [5-(2-fluorophenyl)isoxazol-3-yl]-[4-(1,3,5-trimethylpyrazol-4-yl)-3,4-dihydro-1H-isoquinolin-2-yl]methanone]
≥ 80%: pest or weed control at 200 ppm (Phaeosphaeria nodorum) | pest or weed control at 200 ppm (Pyrenophora teres) | inhibition of growth at 20 ppm (Monographella nivalis) | inhibition of growth at 20 ppm [2] | inhibition of growth at 20 ppm (Mycosphaerella arachidis) | inhibition of growth at 20 ppm (Glomerella lagenarium)

COc1ccc2c(c1)CN(C(=O)c1cc(-c3ccc(F)cc3F)on1)CC2c1cnn(C)c1 (stereo not shown) [Compound P-51, [5-(2,4-difluorophenyl)isoxazol-3-yl]-[7-methoxy-4-(1-methylpyrazol-4-yl)-3,4-dihydro-1H-isoquinolin-2-yl]methanone]
≥ 80%: pest or weed control at 200 ppm (Phaeosphaeria nodorum) | pest or weed control at 200 ppm (Pyrenophora teres) | pest or weed control at 200 ppm (Alternaria solani) | inhibition of growth at 20 ppm (Monographella nivalis) | inhibition of growth at 20 ppm [2] | inhibition of growth at 20 ppm (Mycosphaerella arachidis) | inhibition of growth at 20 ppm (Glomerella lagenarium)

Cn1cc(C2CN(C(=O)c3cc(-c4ccc(F)cc4F)on3)Cc3ccccc32)cn1 (single isomer, unassigned) [Compound P-142, [5-(2,4-difluorophenyl)isoxazol-3-yl]-[4-(1-methylpyrazol-4-yl)-3,4-dihydro-1H-isoquinolin-2-yl]methanone]
≥ 80%: pest or weed control at 200 ppm (Phaeosphaeria nodorum) | inhibition of growth at 20 ppm (Botryotinia fuckeliana) | pest or weed control at 200 ppm (Alternaria solani) | inhibition of growth at 20 ppm (Monographella nivalis) | inhibition of growth at 20 ppm [2] | inhibition of growth at 20 ppm (Mycosphaerella arachidis) | inhibition of growth at 20 ppm (Glomerella lagenarium)

Cn1cc(C2CN(C(=O)c3nnc(-c4ccccc4F)o3)Cc3ccccc32)cn1 (stereo not shown) [Compound P-54, [5-(2-fluorophenyl)-1,3,4-oxadiazol-2-yl]-[4-(1-methylpyrazol-4-yl)-3,4-dihydro-1H-isoquinolin-2-yl]methanone]
≥ 80%: pest or weed control at 200 ppm (Pyrenophora teres) | inhibition of growth at 20 ppm [2]
